Laboratory results published in patent publication US20200383906A1 (Evestra, Inc., priority 2019, published 2020).
“Also recorded” adds a separate entry of the source. Read-outs that look alike come from different tables or passages of the source.

Tests used:
[1] = human, cited from earlier work
[2] = young women, 2.0 and 4.0 mg orally; cited from earlier work
ovulation = assay: Clinical study of vaginal rings: ovulation inhibition, follicular maturation; format: in vivo, women; settings: used release rate of estriol alone
Method: Testing of three vaginal ring prototypes (Device 1, Device 2, and Device 3, described above) in 12 women as preformed. The expected average release rate per day of each device is described in Table 2. Vaginal ring (VR) insertion was performed after pill cycle completion and menstrual bleeding. Observation of a VR over a period of 21 days. Follow-up after removal of the VR. All VR variants tested inhibit ovulation. Ovulation inhibition persisted for more than 7 days after removal of the rings. Signs of follicular maturation at the start of treatment (higher oestradiol levels) disappear during treatment. The effect reflects inhibition of follicular maturation. For the most part, there were no bleeding events during treatment at all and, where they did occur, only to a very small extent (“spotting”). Withdrawal bleeding was observed only after the highest trimegestone dosage.
The course of the estradiol levels in the circulation reflects follicular maturation in the ovary. FIG. 5 depicts the individual serum concentrations of estradiol during single vaginal application of Device 3. […] After removal of the vaginal ring, the estradiol values increase starting from baseline. This increase reflects follicular maturation. […] FIG. 6 depicts the individual serum concentrations of progesterone during single vaginal application of Device 3. […]

ovine genital organs = assay: Experiments in sheep: estrogenic effect of estriol under trimegestone; format: in vivo; settings: on trimegestone
Source text: This estrogenic effect in the genital tract in the presence of a progestogen leads to prevention of spotting and intermenstrual bleeding in humans. Such bleedings on the “pill” are an expression of an endometrial estrogen deficiency.

ovariectomized rodents = settings: parenteral administration; cited from earlier work
estrogen receptor ERß = estrogen receptor ERß (Homo sapiens, UniProt Q92731); settings: cited from earlier work
SHBG = settings: women, entire range of tested doses; cited from earlier work

Sequence of estrogen receptor ERß (Q92731 whole entry): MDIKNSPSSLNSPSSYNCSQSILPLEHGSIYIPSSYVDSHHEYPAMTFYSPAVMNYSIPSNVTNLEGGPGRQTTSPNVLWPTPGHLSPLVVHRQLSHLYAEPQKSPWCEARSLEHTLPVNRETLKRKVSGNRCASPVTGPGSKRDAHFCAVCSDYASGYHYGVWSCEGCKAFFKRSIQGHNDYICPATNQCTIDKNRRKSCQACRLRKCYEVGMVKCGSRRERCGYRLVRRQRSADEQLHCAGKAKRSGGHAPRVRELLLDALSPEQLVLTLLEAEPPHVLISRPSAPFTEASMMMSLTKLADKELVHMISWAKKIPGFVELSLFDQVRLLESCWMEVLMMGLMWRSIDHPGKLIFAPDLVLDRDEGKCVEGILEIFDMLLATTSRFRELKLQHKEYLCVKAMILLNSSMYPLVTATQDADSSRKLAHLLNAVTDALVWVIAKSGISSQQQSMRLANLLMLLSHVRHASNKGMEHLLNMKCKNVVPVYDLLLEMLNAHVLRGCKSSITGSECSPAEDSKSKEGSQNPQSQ

## C#C[C@]1(O)CC[C@H]2[C@@H]3CCc4cc(O)ccc4[C@H]3CC[C@@]21C [EE, 17α-ethinyl estradiol]
[1]; oral vs intravenous
  Oral bioavailability: about 40%
[1]; oral
  First pass effect: 60%

## C[C@]12CC[C@@H]3c4ccc(O)cc4CC[C@H]3[C@@H]1CC[C@@H]2O [Estradiol-17ß]
[2]
  Oral bioavailability: 4.9+/−5%

## C[C@]12CC[C@@H]3c4ccc(O)cc4CC[C@H]3[C@@H]1C[C@@H](O)[C@@H]2O [estriol]
ovulation
  Levels of FSH and LH: decreased
Ovine genital organs
  Estrogenic effect of estriol in the genital tract in the presence of trimegestone: is not inhibited; also recorded: are not attenuated
Ovariectomized rodents
  Estrogenic potency compared with estradiol: about factor ten weaker
Estrogen receptor ERß
  Binding with ERß compared with estradiol: weaker and less stable binding
SHBG
  Changes in surrogate parameter SHBG: no relevant changes were seen
